# Assays:
# Hepatotoxicity [1] = test system: Hepatotoxicity;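 on HepSE Combined Scores: combined hepatic side effect score as listed in the training data of the Drug Induced Liver Injury Prediction System (DILIps)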;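 on HepSE cholecystitis: Cholecystitis-related hepatic side effect score drawn from the DILIps (drug-induced liver injury prediction) training data set; call rule not given here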;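 on HepSE hepatic necrosis: score of hepatic side effects for hepatic necrosis, drawn from the training data of DILIps, a prediction system for drug-induced liver injury; call rule not given here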;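 on HepSE hepatomegaly: hepatic side effect score for hepatomegaly, taken from the training set of the DILIps drug-induced liver injury prediction system; call rule not given here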;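 on HepSE jaundice: Jaundice-related hepatic side-effect score drawn from the training data of the DILIps (drug-induced liver injury prediction system); call rule not given here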;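 on HepSE liver fatty: hepatic side effect score for fatty liver, taken from the DILIps training set for predicting drug-induced liver injury; call rule not given here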
# Hepatotoxicity [2] = test system: Hepatotoxicity; remark: listed apart in the source;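 on HepSE Combined Scores: combined hepatic side effect score as listed in the training data of the Drug Induced Liver Injury Prediction System (DILIps)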;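 on HepSE cholecystitis: Cholecystitis-related hepatic side effect score drawn from the DILIps (drug-induced liver injury prediction) training data set; call rule not given here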;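 on HepSE hepatic necrosis: score of hepatic side effects for hepatic necrosis, drawn from the training data of DILIps, a prediction system for drug-induced liver injury; call rule not given here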;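 on HepSE hepatomegaly: hepatic side effect score for hepatomegaly, taken from the training set of the DILIps drug-induced liver injury prediction system; call rule not given here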;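 on HepSE jaundice: Jaundice-related hepatic side-effect score drawn from the training data of the DILIps (drug-induced liver injury prediction system); call rule not given here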;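 on HepSE liver fatty: hepatic side effect score for fatty liver, taken from the DILIps training set for predicting drug-induced liver injury; call rule not given here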
# Hepatotoxicity [3] = test system: Hepatotoxicity; remark: listed apart in the source;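 on HepSE Combined Scores: combined hepatic side effect score as listed in the training data of the Drug Induced Liver Injury Prediction System (DILIps)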;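 on HepSE cholecystitis: Cholecystitis-related hepatic side effect score drawn from the DILIps (drug-induced liver injury prediction) training data set; call rule not given here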;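 on HepSE hepatic necrosis: score of hepatic side effects for hepatic necrosis, drawn from the training data of DILIps, a prediction system for drug-induced liver injury; call rule not given here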;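 on HepSE hepatomegaly: hepatic side effect score for hepatomegaly, taken from the training set of the DILIps drug-induced liver injury prediction system; call rule not given here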;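 on HepSE jaundice: Jaundice-related hepatic side-effect score drawn from the training data of the DILIps (drug-induced liver injury prediction system); call rule not given here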;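 on HepSE liver fatty: hepatic side effect score for fatty liver, taken from the DILIps training set for predicting drug-induced liver injury; call rule not given here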
# Hepatotoxicity [4] = test system: Hepatotoxicity; remark: listed apart in the source;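 on HepSE Combined Scores: combined hepatic side effect score as listed in the training data of the Drug Induced Liver Injury Prediction System (DILIps)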;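 on HepSE cholecystitis: Cholecystitis-related hepatic side effect score drawn from the DILIps (drug-induced liver injury prediction) training data set; call rule not given here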;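 on HepSE hepatomegaly: hepatic side effect score for hepatomegaly, taken from the training set of the DILIps drug-induced liver injury prediction system; call rule not given here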;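 on HepSE jaundice: Jaundice-related hepatic side-effect score drawn from the training data of the DILIps (drug-induced liver injury prediction system); call rule not given here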;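 on HepSE liver fatty: hepatic side effect score for fatty liver, taken from the DILIps training set for predicting drug-induced liver injury; call rule not given here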
# Hepatotoxicity [5] = test system: Hepatotoxicity; remark: listed apart in the source
# Hepatotoxicity [6] = test system: Hepatotoxicity; remark: listed apart in the source
# Hepatotoxicity [7] = test system: Hepatotoxicity; remark: listed apart in the source
# Hepatotoxicity [8] = test system: Hepatotoxicity; remark: listed apart in the source
# Hepatotoxicity [9] = test system: Hepatotoxicity; remark: listed apart in the source
# Hepatotoxicity [10] = test system: Hepatotoxicity; remark: listed apart in the source
# Hepatotoxicity [11] = test system: Hepatotoxicity; remark: listed apart in the source
# Hepatotoxicity [12] = test system: Hepatotoxicity; remark: listed apart in the source
# Hepatotoxicity [13] = test system: Hepatotoxicity; remark: listed apart in the source
# Hepatotoxicity [14] = test system: Hepatotoxicity; remark: listed apart in the source
Structure (SMILES),HepSE_liver fatty (Hepatotoxicity [1]),HepSE_hepatomegaly (Hepatotoxicity [2]),HepSE_jaundice (Hepatotoxicity [3]),HepSE_Combined Scores (Hepatotoxicity [4]),HepSE_cholecystitis (Hepatotoxicity [5]),HepSE_hepatic necrosis (Hepatotoxicity [6]),HepSE_cholelithiasis (Hepatotoxicity [7]),HepSE_elevated liver function tests (Hepatotoxicity [8]),HepSE_bilirubinemia (Hepatotoxicity [9]),HepSE_cirrhosis (Hepatotoxicity [10]),HepSE_hepatic failure (Hepatotoxicity [11]),HepSE_liver disease (Hepatotoxicity [12]),HepSE_hepatitis (Hepatotoxicity [13]),HepSE_liver function tests abnormal (Hepatotoxicity [14]),also measured
Cn1c(=O)c2c(ncn2C)n(C)c1=O [CAFFEINE],0,0,0,0,0,0,0,0,0,0,0,0,0,0,–
Nc1nc2c(ncn2CCC(CO)CO)c(=O)[nH]1 [PENCICLOVIR],0,0,0,0,0,0,0,0,0,0,0,0,0,0,–
COc1ccc(C(CN(C)C)C2(O)CCCCC2)cc1 (stereo not drawn) [VENLAFAXINE],1,0,1,7,1,0,1,0,1,1,0,0,1,0,–
CCC1(C)CC(=O)NC1=O (stereo not drawn) [ETHOSUXIMIDE],0,0,0,0,0,0,0,0,0,0,0,0,0,0,–
CCC[C@H](N[C@@H](C)C(=O)N1[C@H](C(=O)O)C[C@@H]2CCCC[C@@H]21)C(=O)OCC [PERINDOPRIL],0,0,1,3,0,0,0,0,0,0,1,0,1,0,–
O=P(O)(O)C(Cl)(Cl)P(=O)(O)O [CLODRONIC ACID],0,0,0,1,0,0,0,0,0,0,0,1,0,0,–
COC(=O)CCC(=O)CN [METHYL AMINOLEVULINATE],0,0,0,0,0,0,0,0,0,0,0,0,0,0,–
Nc1nc(=O)n([C@@H]2CS[C@H](CO)O2)cc1F [EMTRICITABINE],–,–,–,–,–,–,–,–,–,–,–,–,–,–,HepSE_liver fatty (Hepatotoxicity [1]; Liver): 0; HepSE_hepatomegaly (Hepatotoxicity [2]; Liver): 0; HepSE_jaundice (Hepatotoxicity [3]; Liver): 0; HepSE_Combined Scores (Hepatotoxicity [4]; Liver): 0; HepSE_cholecystitis (Hepatotoxicity [5]; Liver): 0; HepSE_hepatic necrosis (Hepatotoxicity [6]; Liver): 0; HepSE_cholelithiasis (Hepatotoxicity [7]; Liver): 0; HepSE_elevated liver function tests (Hepatotoxicity [8]; Liver): 0; HepSE_bilirubinemia (Hepatotoxicity [9]; Liver): 0; HepSE_cirrhosis (Hepatotoxicity [10]; Liver): 0; HepSE_hepatic failure (Hepatotoxicity [11]; Liver): 0; HepSE_liver disease (Hepatotoxicity [12]; Liver): 0; HepSE_hepatitis (Hepatotoxicity [13]; Liver): 0; HepSE_liver function tests abnormal (Hepatotoxicity [14]; Liver): 0
CC1(C)O[C@@H]2[C@@H](CO[C@@]3(COS(N)(=O)=O)OC(C)(C)O[C@@H]23)O1 [TOPIRAMATE],0,0,0,2,0,0,0,0,0,0,1,0,1,0,–
CN1C[C@H](C(=O)N[C@]2(C)O[C@@]3(O)[C@@H]4CCCN4C(=O)[C@H](Cc4ccccc4)N3C2=O)C=C2c3cccc4[nH]cc(c34)C[C@H]21 [ERGOTAMINE],0,0,0,0,0,0,0,0,0,0,0,0,0,0,–
CN(C)[C@@H]1C(O)=C(C(N)=O)C(=O)[C@@]2(O)C(O)=C3C(=O)c4c(O)cccc4[C@@](C)(O)[C@H]3C[C@@H]12 [TETRACYCLINE],0,0,0,1,0,0,0,0,0,0,1,0,0,0,–
CCCCNc1cc(C(=O)O)cc(S(N)(=O)=O)c1Oc1ccccc1 [BUMETANIDE],0,0,0,1,0,0,0,0,0,0,0,1,0,0,–
COc1ccc2[nH]c([S+]([O-])Cc3ncc(C)c(OC)c3C)nc2c1 (stereo not drawn) [OMEPRAZOLE],0,0,1,7,0,1,1,0,1,0,1,1,1,0,–
C[C@@H]1C[C@H]2[C@@H]3CCC4=CC(=O)C=C[C@]4(C)[C@@]3(F)[C@@H](O)C[C@]2(C)[C@@]1(O)C(=O)CO [DEXAMETHASONE],0,1,0,1,0,0,0,0,0,0,0,0,0,0,–
CO/N=C(\C(=O)N[C@@H]1C(=O)N2C(C(=O)O)=C(CSc3nc(=O)c(=O)[nH]n3C)CS[C@H]12)c1csc(N)n1 [CEFTRIAXONE],0,0,0,0,0,0,0,0,0,0,0,0,0,0,–
CCN(Cc1ccncc1)C(=O)C(CO)c1ccccc1 (stereo not drawn) [TROPICAMIDE],0,0,0,0,0,0,0,–,0,0,0,0,0,–,HepSE_elevated liver function tests (Hepatotoxicity [8]; Liver): 0; HepSE_liver function tests abnormal (Hepatotoxicity [14]; Liver): 0
NC1=NC(=O)C(c2ccccc2)O1 (stereo not drawn) [PEMOLINE],0,0,1,2,0,0,0,0,0,0,0,0,1,0,–

# — ChEMBL document CHEMBL1909294, “Translating clinical findings into knowledge in drug safety evaluation--drug induced liver injury prediction system (DILIps)” (PLoS Comput Biol, 2011)
